Results on 13 compounds are retold here after US10647680B2, “Urea compound, preparation method therefor and medical use thereof” (Ancureall Pharmaceutical (Shanghai) Co., Ltd., priority 2016, dated 2020).

Experiment [1] relates to MV4-11 (FLT3 ITD+/+ mutant type). Nature of the experiment: In vitro growth inhibition (GI50), MV4-11. Type of experiment: cell-based, human. The following applies: Homo sapiens, MV4-11; Cell lines of leukemia; read-out: GI 50 MV4-11 FLT3 (ITD +/+).
The test system of experiment [2] is MOLM-13 (FLT3 ITD+/− mutant type). In words: In vitro growth inhibition (GI50), MOLM-13. Type of experiment: cell-based, human. The note with it: Homo sapiens, MOLM-13; Cell lines of leukemia; read-out: GI 50 MOLM-13 FLT3 (ITD+/−).
In the next experiment the test system is RS4; 11 (FLT3 wild type). In words: In vitro growth inhibition (GI50), RS4; 11. Type of experiment: cell-based, human. The note with it: Homo sapiens, RS4-11; Cell lines of leukemia; read-out: GI 50 RS4: 11 FLT3 (WT).
For experiment [3], the system named is K562 (FLT3 negative expression, positive expression of BCR-ABL fusion protein). Nature of the experiment: In vitro growth inhibition (GI50), K562. Type of experiment: cell-based. The following applies: Homo sapiens, Cell lines of leukemia, read-out: GI 50 K562 BCR-ABL.
For experiment [4], the system named is RAMOS (positive expression of Brutons tyrosine protein kinase). In words: In vitro growth inhibition (GI50), RAMOS. The format is cell-based. The note with it: Homo sapiens, Cell lines of leukemia, read-out: GI 50 Ramos BTK.
A further experiment concerns U937 (FLT3 wild-type). Nature of the experiment: In vitro growth inhibition (GI50), U937. The following applies: Homo sapiens, U-937; Cell lines of leukemia; read-out: GI 50 U937 FLT 3(WT). Type of experiment: cell-based.
The test system of experiment [5] is Kasumi-1 (c-Kit N822K mutant type). In words: In vitro growth inhibition (GI50), Kasumi-1. The format is cell-based. The note with it: Homo sapiens, Cell lines of leukemia, read-out: GI 50 Kasumi-1 Kit (N822K). The method in brief: (§1)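 After 3–5 days of treatment (top concentration 5,000 nM, serially diluted 2- or 10-fold to 0.01 nM, solvent ≤1%), viability was read by CCK8 at OD450. Growth rate was normalised to the time-zero and solvent-control wells, and GI50 was derived from the curve. Cultures in RPMI1640 + 10% FBS.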

The test system of experiment [6] is KG-1 (expressing FGFR1OP2-FGFR1 fusion protein). In words: In vitro growth inhibition (GI50), KG-1. Type of experiment: cell-based. The following applies: Homo sapiens; Cell lines of leukemia; read-out: GI 50 KG-1 FGFR1OP 2-FGFR1.
Another experiment deals with HL-60 (FLT3 wild type). In words: In vitro growth inhibition (GI50), HL-60. The format is cell-based. The note with it: Homo sapiens, Cell lines of leukemia, read-out: GI 50 HL60 FLT3 (WT). The procedure, abridged: as §1
Experiment [7] deals with OCI-AML3 (NPMc+ mutant type). Nature of the experiment: In vitro growth inhibition (GI50), OCI-AML3. The note with it: Homo sapiens, OCI-AML-3; Cell lines of leukemia; read-out: GI 50 OCI- AML3 NPMc+. The format is cell-based.

As to `CC(C)(C)c1cc(NC(=O)Nc2ccc(-n3cnc4cc(OCCN5CCCCCC5)ccc43)cc2)[nH]n1` [Compound 91, 1-{4-[5-(2-azepan-1-yl-ethoxy)-benzimidazol-1-yl]-phenyl}-3-(5-tert-butyl-2H-pyrazol-3-yl)-urea], the GI50 was 0.1 to 1 nM in experiment [1]; 0.1 to 1 nM in experiment [2]; > 1000 nM in the experiment on RS4; 11 (FLT3 wild type); > 1000 nM in experiment [3]; > 1000 nM in experiment [4]; > 1000 nM with U937 (FLT3 wild-type). Moreover, the GI50 (in [5]; in experiment [6]; in the experiment on HL-60 (FLT3 wild type); in experiment [7]) was > 1000 nM each time.
Consider `Cc1cc(NC(=O)Nc2cc(C(C)(C)C)on2)ccc1-n1cnc2ccccc21` [Compound 37, 1-(4-benzimidazol-1-yl-3-methyl-phenyl)-3-(5-tert-butyl-isoxazol-3-yl)-urea], for which the GI50 in [1] is 100 to 1000 nM; in experiment [2], 100 to 1000 nM; in the experiment with RS4; 11 (FLT3 wild type), > 1000 nM; in [3], > 1000 nM; in experiment [4], > 1000 nM; in the experiment on U937 (FLT3 wild-type), > 1000 nM. In addition, the GI50 (in experiment [5]; in experiment [6]; in the experiment on HL-60 (FLT3 wild type); in experiment [7]) was > 1000 nM throughout.
With `O=C(Nc1ccc(-n2cnc3ccccc32)cc1)Nc1cc(C2CC2)n[nH]1` [Compound 66, 1-(4-benzimidazol-1-yl-phenyl)-3-(5-cyclopropyl-2H-pyrazol-3-yl)-urea], the GI50 is 10 to 100 nM in experiment [1]; 10 to 100 nM in experiment [2]; > 1000 nM in the experiment with RS4; 11 (FLT3 wild type); > 1000 nM in experiment [3]; > 1000 nM in [4]; > 1000 nM in the experiment with U937 (FLT3 wild-type). The GI50 (in experiment [5]; in experiment [6]; in the experiment on HL-60 (FLT3 wild type); in experiment [7]) was > 1000 nM each time.
On to `CC(C)(C)c1cc(NC(=O)Nc2cnc(-n3cnc4ccccc43)nc2)no1` [Compound 43, 1-(2-benzimidazol-1-yl-pyrimidin-5-yl)-3-(5-tert-butyl-isoxazol-3-yl)-urea], for which the GI50 in [1] was 10 to 100 nM; in experiment [2], 10 to 100 nM; in the experiment with RS4; 11 (FLT3 wild type), > 1000 nM; in experiment [3], > 1000 nM; in [4], > 1000 nM; in the experiment with U937 (FLT3 wild-type) it was > 1000 nM. For the same compound, the GI50 (in experiment [5]; in experiment [6]; in the experiment on HL-60 (FLT3 wild type); in [7]) was > 1000 nM throughout.
Regarding `CC(C)(C)c1cc(NC(=O)Nc2ccc(-n3cnc4cc(OCCN5CCCCC5)ccc43)cc2)[nH]n1` [Compound 90, 1-(5-tert-butyl-2H-pyrazol-3-yl)-3-{4-[5-(2-piperidin-1-yl-ethoxyl)-benzimidazol-1-yl]-phenyl}-urea], the GI50 in [1] was 0.1 to 1 nM; in experiment [2] it was 0.1 to 1 nM; with RS4; 11 (FLT3 wild type), > 1000 nM; in [3], > 1000 nM; in experiment [4], > 1000 nM; with U937 (FLT3 wild-type), > 1000 nM. The GI50 (in [5]; in [6]; in the experiment with HL-60 (FLT3 wild type); in [7]) was > 1000 nM each time.
In the case of `CC(C)(C)c1cc(NC(=O)Nc2ccc(-n3cnc4ncccc43)cc2)no1` [Compound 56, 1-(5-tert-butyl-isoxazol-3-yl)-3-(4-imidazo[4,5-b]pyridin-1-yl-phenyl)-urea], the GI50 in [1] is 10 to 100 nM; in experiment [2] it was 10 to 100 nM; in the experiment with RS4; 11 (FLT3 wild type), > 1000 nM; in experiment [3], > 1000 nM; in experiment [4], > 1000 nM; in the experiment on U937 (FLT3 wild-type), > 1000 nM. Moreover, the GI50 was > 1000 nM in experiment [5], 100 to 1000 nM in experiment [6], > 1000 nM in the experiment on HL-60 (FLT3 wild type) and > 1000 nM in experiment [7].
In the case of `CNC(=O)c1cc(Oc2ccc3c(c2)ncn3-c2ccc(NC(=O)n3nc(C(C)(C)C)cc3N)cc2)ccn1` [Compound 127, 4-(1-{4-[(5-amino-3-tert-butyl-pyrazol-1-carbonyl)-amino]-phenyl}-1H-benzimidazol-5-yloxy)-pyridin-2-carboxylic acid methylamide], the GI50 was 100 to 1000 nM in experiment [1]; 100 to 1000 nM in [2]; > 1000 nM with RS4; 11 (FLT3 wild type); > 1000 nM in experiment [3]; > 1000 nM in experiment [4]; > 1000 nM in the experiment on U937 (FLT3 wild-type). In addition, the GI50 (in experiment [5]; in [6]; with HL-60 (FLT3 wild type); in experiment [7]) was > 1000 nM each time.
As for `O=C(Nc1ccc(-n2cnc3ccccc32)cc1)Nc1ccon1` [Compound 1, 1-(4-benzimidazol-1-yl-phenyl)-3-isoxazol-3-yl-urea], the GI50 (in experiment [1]; in experiment [2]; in the experiment with RS4; 11 (FLT3 wild type); in experiment [3]; in [4]; in the experiment on U937 (FLT3 wild-type)) was > 1000 nM throughout. Besides, the GI50 (in experiment [5]; in experiment [6]; in the experiment with HL-60 (FLT3 wild type); in experiment [7]) was > 1000 nM each time.
Take `CC(C)(C)c1cc(NC(=O)Nc2ccc(-n3cnc4cc(OCc5cccc(F)c5)ccc43)cc2)[nH]n1` [Compound 93, 1-(5-tert-butyl-2H-pyrazol-3-yl)-3-{4-[5-(3-fluoro-benzyloxy)-benzimidazol-1-yl]-phenyl]-urea]: the GI50 in [1] was 1 to 10 nM; in experiment [2] it was 1 to 10 nM; in the experiment with RS4; 11 (FLT3 wild type), > 1000 nM; in [3], > 1000 nM; in [4], > 1000 nM; in the experiment with U937 (FLT3 wild-type), > 1000 nM. The GI50 (in experiment [5]; in experiment [6]; in the experiment with HL-60 (FLT3 wild type); in experiment [7]) was > 1000 nM in each case.
`O=C(Nc1ccc(-n2cnc3ccccc32)cc1)Nc1nncs1` [Compound 62, 1-(4-benzimidazol-1-yl-phenyl)-3-[1,3,4]thiadiazol-2-yl-urea]: the GI50 (in experiment [1]; in experiment [2]; in the experiment on RS4; 11 (FLT3 wild type); in experiment [3]; in [4]; in the experiment on U937 (FLT3 wild-type)) was > 1000 nM in each case. Further, the GI50 (in experiment [5]; in [6]; in the experiment on HL-60 (FLT3 wild type); in [7]) was > 1000 nM each time.
For `CC(C)(C)c1cc(NC(=O)Nc2ccc(-n3cnc4ccccc43)cc2)n(-c2ccccn2)n1` [Compound 110, 1-(4-benzimidazol-1-yl-phenyl)-3-(5-tert-butyl-2-pyridin-2-yl-2H-pyrazol-3-yl)-urea], the GI50 in experiment [1] was 10 to 100 nM; in experiment [2] it was 10 to 100 nM; in the experiment on RS4; 11 (FLT3 wild type) it was > 1000 nM; in experiment [3], > 1000 nM; in [4], > 1000 nM; in the experiment with U937 (FLT3 wild-type), > 1000 nM. For the same compound, the GI50 (in experiment [5]; in [6]; with HL-60 (FLT3 wild type); in experiment [7]) was > 1000 nM throughout.
Consider `COCCOc1ccc2ncn(-c3ccc(NC(=O)n4nc(C(C)(C)C)cc4N)cc3)c2c1` [Compound 128, 5-amino-3-tert-butyl-pyrazol-1-carboxylic acid {4-[6-(2-methoxyl-ethoxyl)-benzimidazol-1-yl]-phenyl}-amide], for which the GI50 in experiment [1] is 10 to 100 nM; in [2] it was 10 to 100 nM; in the experiment with RS4; 11 (FLT3 wild type), > 1000 nM; in [3], > 1000 nM; in experiment [4], > 1000 nM; with U937 (FLT3 wild-type), > 1000 nM. Further, the GI50 (in experiment [5]; in experiment [6]; in the experiment with HL-60 (FLT3 wild type); in experiment [7]) was > 1000 nM each time.
With `CCOc1ccc2c(c1)ncn2-c1ccc(NC(=O)Nc2cc(C(C)(C)C)on2)cc1` [Compound 6, 1-(5-tert-butyl-isoxazol-3-yl)-3-[4-(5-ethoxyl-benzimidazol-1-yl)-phenyl]-urea], the GI50 in experiment [1] was 0.1 to 1 nM; in experiment [2], 0.1 to 1 nM; in the experiment on RS4; 11 (FLT3 wild type), > 1000 nM; in experiment [3], > 1000 nM; in experiment [4], > 1000 nM; in the experiment on U937 (FLT3 wild-type), > 1000 nM. Moreover, the GI50 (in experiment [5]; in experiment [6]; in the experiment on HL-60 (FLT3 wild type); in experiment [7]) was > 1000 nM in each case.
